According to paper PMC6658735 (Biomaterials, 2019):

Legend:
[1] = test system: AM microtissues
[2] = test system: AM microtissues; test: Effect of ROCK inhibitor on AM cyst formation; type: cell-based, human; conditions: 10 μM
[3] = day 0 to day 3, control: Y27632 removed at day 1

| Compound | toxicity on the AM development (dose-response, in words) [1] | cyst morphology ([2]; day 0 to day 3) | lumens per cyst (EZRIN immunostaining) ([2]; day 0 to day 3, control has a single central lumen) | average normalized nuclear intensity of GATA3 vs untreated control [2, 3] | average normalized nuclear intensity of TFAP2A vs untreated control [2, 3] | average normalized nuclear intensity of TFAP2B vs untreated control [2, 3] |
| --- | --- | --- | --- | --- | --- | --- |
| COc1cccc2c1C(=O)c1c(O)c3c(c(O)c1C2=O)C[C@@](O)(C(=O)CO)C[C@@H]3O[C@H]1C[C@H](N)[C@H](O)[C@H](C)O1 [Doxorubicin] | induces massive cell death shortly after treatment | – | – | – | – | – |
| C[C@@H](N)[C@H]1CC[C@H](C(=O)Nc2ccncc2)CC1 [Y27632] | – | flattened and collapsed morphology without a visible single, central lumen | multiple EZRIN+ lumens | no significant differences | no significant differences | no significant differences |
